Laboratory results taken from patent publication US20260265249A1, “PHARMACEUTICALLY ACCEPTABLE SALT AND CRYSTAL FORM OF 1,4-DIHYDRO-1,6-NAPHTHYRIDINE AMIDE COMPOUND AND PREPARATION METHOD THEREFOR” (JIANGSU HENGRUI PHARMACEUTICALS CO., LTD., priority 2023, published 2026).
Values belong to the compound of their own block, whether it stands above or below them.

How the values were obtained:
Assay type in all cases: physicochemical
[1] = DVS (dynamic vapor sorption) hygroscopicity test
Description: According to the description of hygroscopicity characteristics and the definitions of hygroscopic weight gains in “General Rule 9103, Guidelines for Hygroscopicity” in the Chinese Pharmacopoeia, Volume IV, 2015 Edition, • deliquescent: sufficient water is absorbed to form a liquid; • extremely hygroscopic: the hygroscopic weight gain is not less than 15%; • hygroscopic: the hygroscopic weight gain is less than 15% but not less than 2%; • slightly hygroscopic: the hygroscopic weight gain is less than 2% but not less than 0.2%; • nonhygroscopic or practically nonhygroscopic: the hygroscopic weight gain is less than 0.2%.
TGA refers to thermogravimetric analysis: The analysis was performed using a METTLER TOLEDO TGA 2 thermogravimetric analyzer, with a temperature ramp rate of 10° C./min, specific temperature ranges shown in corresponding patterns (mostly 30-350° C.), and a nitrogen purge speed of 50 mL/min. DVS refers to dynamic vapor sorption: The analysis was performed using SMS DVS Advantage; at 25° C., the humidity was changed as follows: 50%-95%-0%-95%-50%, in steps of 10% (5% for the last step) (specific humidity ranges are shown in corresponding patterns, and those listed here were used in most cases); the criterion was dm/dt being not greater than 0.002%.

[2] = Long-term/accelerated stability study (sealed in aluminum foil bags, 25° C./60% RH and 40° C./75% RH)
[3] = Influencing factor stability study (open containers; light, high temperature, high humidity; 30 days)
[4] = accelerated experimental conditions, 70% RH
[5] = normal storage conditions, 25° C. and 60% RH
[6] = 25° C.-60% RH, sealed aluminum foil bag, 1 month
[7] = 25° C.-60% RH, sealed aluminum foil bag, 2 months
[8] = 25° C.-60% RH, sealed aluminum foil bag, 3 months
[9] = 25° C.-60% RH, sealed aluminum foil bag, 6 months
[10] = 40° C.-75% RH, sealed aluminum foil bag, 1 month
[11] = 40° C.-75% RH, sealed aluminum foil bag, 2 months
[12] = 40° C.-75% RH, sealed aluminum foil bag, 3 months
[13] = 40° C.-75% RH, sealed aluminum foil bag, 6 months
[14] = open container, 60° C., 1 month
[15] = open container, 60° C., 14 days
[16] = open container, 75% RH, 1 month
[17] = open container, 75% RH, 14 days
[18] = open container, 92.5% RH, 1 month
[19] = open container, 92.5% RH, 7 days
[20] = open container, 92.5% RH, 14 days
[21] = open container, light exposure (4500 Lux), 7 days
[22] = open container, light exposure (4500 Lux), 14 days
[23] = open container, 40° C., 1 month
[24] = open container, 40° C., 14 days
[25] = open container, light exposure (4500 Lux), 1 month

hygroscopic weight gain [1, 4]: about 13.2% | crystal form re-identified after the DVS test [1]: did not change | hygroscopic weight gain ([1]; extreme conditions, 90% RH): about 13.8% | hygroscopic weight gain [1, 5]: about 12.8% | Purity (%) ([2]; 0 days (initial)): 99.7% | Crystal form [2, 6]: No change | Purity (%) [2, 6]: 99.8% | Crystal form [2, 7]: No change | Purity (%) [2, 7]: 99.7% | Crystal form [2, 8]: No change | Purity (%) [2, 8]: 99.7% | Crystal form [2, 9]: No change | Purity (%) [2, 9]: 99.7% | Crystal form [2, 10]: No change | Purity (%) [2, 10]: 99.6% | Crystal form [2, 11]: No change | Purity (%) [2, 11]: 99.4% | Crystal form [2, 12]: No change | Purity (%) [2, 12]: 97.9% | Crystal form [2, 13]: No change | Purity (%) [2, 13]: 97.9% | long-term/accelerated stability (conclusion) ([2]; under long-term conditions): stable | Crystal form [3, 14]: No change | Purity [3, 14]: 98.2% | Crystal form ([3]; open container, 60° C., 7 days): No change | Purity ([3]; open container, 60° C., 7 days): 99.2% | Crystal form [3, 15]: No change | Purity [3, 15]: 99.0% | Crystal form [3, 16]: No change | Purity [3, 16]: 99.6% | Crystal form ([3]; open container, 75% RH, 7 days): No change | Purity ([3]; open container, 75% RH, 7 days): 99.7% | Crystal form [3, 17]: No change | Purity [3, 17]: 99.6% | Crystal form [3, 18]: No change | Crystal form [3, 19]: No change | Purity [3, 19]: 99.7% | Crystal form [3, 20]: No change | Crystal form [3, 21]: No change | Crystal form [3, 22]: No change
SMILES: Br.[2H]C([2H])([2H])Oc1cc(C#N)ccc1[C@@H]1C(C(N)=O)=C(C)Nc2c(C)cnc(OCC)c21 [crystal form I of hydrobromide]

hygroscopic weight gain [1, 4]: about 1.9% | crystal form re-identified after the DVS test [1]: did not change | hygroscopic weight gain ([1]; extreme conditions, 90% RH): about 3.1% | hygroscopic weight gain [1, 5]: about 1.6% | Purity (%) ([2]; 0 days (initial)): 99.7% | Crystal form [2, 6]: No change | Purity (%) [2, 6]: 99.7% | Crystal form [2, 7]: No change | Purity (%) [2, 7]: 99.7% | Crystal form [2, 8]: No change | Purity (%) [2, 8]: 99.8% | Crystal form [2, 9]: No change | Purity (%) [2, 9]: 99.7% | Crystal form [2, 10]: No change | Purity (%) [2, 10]: 99.6% | Crystal form [2, 11]: No change | Purity (%) [2, 11]: 99.7% | Crystal form [2, 12]: No change | Purity (%) [2, 12]: 99.6% | Crystal form [2, 13]: No change | Purity (%) [2, 13]: 99.6% | long-term/accelerated stability (conclusion) ([2]; storage under long-term accelerated conditions for 6 months): good physical and chemical stability | Crystal form ([3]; 0 days): Crystal form a of sulfate | Purity ([3]; 0 days): 99.7% | Crystal form [3, 23]: No change | Purity [3, 23]: 98.5% | Crystal form ([3]; open container, 40° C., 7 days): No change | Purity ([3]; open container, 40° C., 7 days): 99.4% | Crystal form [3, 24]: No change | Purity [3, 24]: 98.8% | Crystal form [3, 14]: No change | Purity [3, 14]: 97.9% | Crystal form ([3]; open container, 60° C., 7 days): No change | Purity ([3]; open container, 60° C., 7 days): 99.2% | Crystal form [3, 15]: No change | Purity [3, 15]: 98.7% | Crystal form [3, 16]: No change | Purity [3, 16]: 99.7% | Crystal form ([3]; open container, 75% RH, 7 days): No change | Purity ([3]; open container, 75% RH, 7 days): 99.7% | Crystal form [3, 17]: No change | Purity [3, 17]: 99.6% | Crystal form [3, 18]: No change | Purity [3, 18]: 99.7% | Crystal form [3, 19]: No change | Purity [3, 19]: 99.6% | Crystal form [3, 20]: No change | Purity [3, 20]: 99.7% | Crystal form [3, 25]: No change | Purity [3, 25]: 98.1% | Crystal form [3, 21]: No change | Purity [3, 21]: 99.2% | Crystal form [3, 22]: No change | Purity [3, 22]: 98.9%
SMILES: O=S(=O)(O)O.[2H]C([2H])([2H])Oc1cc(C#N)ccc1[C@@H]1C(C(N)=O)=C(C)Nc2c(C)cnc(OCC)c21 [crystal form a of sulfate]
